Data reported in US20190029252A1, “Use of Herbicide-tolerant Protein” (BEIJING DABEINONG TECHNOLOGY GROUP CO., LTD., priority 2016, published 2019).

Experiments:
Format in all cases: in vivo
[1] = tested on: transformed Arabidopsis thaliana T1 plants (ALT-1, ALT-2 and ALT-3); test: Herbicide tolerance of transgenic Arabidopsis thaliana T1 plants, overall conclusion; conditions: transgenic Arabidopsis thaliana T1 plants; 18 g ai/ha
Text: (§1) Plants were counted for the resistance situations 14 days after spraying: those having a consistent growth status with the blank solvent (water) group after 14 days were classified as highly resistant plants, those having a bolting height less than ½ of that of the blank solvent (water) group after 14 days were classified as moderately resistant plants, those still not capable of bolting after 14 days were classified as poorly resistant plants, and those dead after 14 days were classified as non-resistant plants. Since each Arabidopsis thaliana T1 plant was an independent transformation event, a significant difference in individual T1 responses could be expected at a given dose.
as §1, with “situation” for “situations”

[2] = tested on: Zm chloroplastic ALT-3-02 maize plants; test: Tribenuron-methyl tolerance of maize plants, damage degree after spraying; conditions: 72 g ai/ha (4-fold field concentration)
Experimental: (§2) The damage degree caused by the herbicide was measured for each plant according to the plant growth status 3 days after spraying (3 DAT), 7 days after spraying (7 DAT), 14 days after spraying (14 DAT) and 21 days after spraying (21 DAT), respectively: considering a growth status equivalent to that of the untreated plants as having a damage degree of 0%; considering conditions of leaves being partially chlorotic and yellow but substantially not affecting the plant normal growth as having a damage degree of 50%; and considering the whole plant being purple and dying as having a damage degree of 100%. There were 2 strains in Zm cytoplasmic ALT-1-02 maize plants in total (S13 and S14), 2 strains in Zm chloroplastic ALT-1-02 maize plants in total (S15 and S16), 2 strains in Zm cytoplasmic ALT-2-02 maize plants in total (S17 and S18), 2 strains in Zm chloroplastic ALT-2-02 maize plants in total (S19 and S20), 2 strains in Zm cytoplasmic ALT-3-02 maize plants in total (S21 and S22), 2 strains in Zm chloroplastic ALT-3-02 maize plants in total (S23 and S24), and 1 strain in wild-type maize plants (CK2) in total; and 10-15 plants were selected from each strain and tested.

[3] = tested on: wild-type maize plants (CK2); test: as above
Experimental: as §2

[4] = tested on: Zm cytoplasmic ALT-3-02 maize plants; test: as above; conditions: 72 g ai/ha (4-fold field concentration)
Experimental: as §2

[5] = tested on: Zm cytoplasmic ALT-1-02 maize plants; test: as above; conditions: 72 g ai/ha (4-fold field concentration)
Experimental: as §2

[6] = tested on: At cytoplasmic ALT-2-01 T1 plants; test: Herbicide tolerance of Arabidopsis thaliana T1 plants, sprayed, resistance classes counted 14 days after spraying; conditions: sprayed at 1-fold field concentration
Text: (§3) T1 transformants were initially selected from the background of untransformed seeds using a glufosinate selection scheme. About 40000 T1 seeds were screened, and 380 T1 positive transformants (PAT gene) were identified with a transformation efficiency of about 0.95%. The plants that were transformed with the recombinant expression vector DBN100632 were Arabidopsis thaliana plants having an ALT-1-01 nucleotide sequence located in the cytoplasm introduced (At cytoplasmic ALT-1-01), and the plants that were transformed with the recombinant expression vector DBN100631 were Arabidopsis thaliana plants having an ALT-1-01 nucleotide sequence located in the chloroplast introduced (At chloroplastic ALT-1-01); the plants that were transformed with the recombinant expression vector DBN100634 were Arabidopsis thaliana plants having an ALT-2-01 nucleotide sequence located in the cytoplasm introduced (At cytoplasmic ALT-2-01), and the plants that were transformed with the recombinant expression vector DBN100633 were Arabidopsis thaliana plants having an ALT-2-01 nucleotide sequence located in the chloroplast introduced (At chloroplastic ALT-2-01); and the plants that were transformed with the recombinant expression vector DBN100636 were Arabidopsis thaliana plants having an ALT-3-01 nucleotide sequence located in the cytoplasm introduced (At cytoplasmic ALT-3-01), and the plants that were transformed with the recombinant expression vector DBN100635 were Arabidopsis thaliana plants having an ALT-3-01 nucleotide sequence located in the chloroplast introduced (At chloroplastic ALT-3-01).
as §1
as §1, with “situation” for “situations”

[7] = tested on: At cytoplasmic ALT-3-01 T1 plants; test: as above; conditions: sprayed at 1-fold field concentration
Text: as §3, §1
as §1, with “situation” for “situations”

[8] = tested on: At chloroplastic ALT-1-01 T1 plants; test: as above; conditions: sprayed at 1-fold field concentration
Text: as §3, §1
as §1, with “situation” for “situations”

[9] = tested on: At cytoplasmic ALT-1-01 T1 plants; test: as above; conditions: sprayed at 1-fold field concentration
Text: as §3, §1
as §1, with “situation” for “situations”

[10] = tested on: At chloroplastic ALT-3-01 T1 plants; test: as above; conditions: sprayed at 1-fold field concentration
Text: as §3, §1
as §1, with “situation” for “situations”

[11] = tested on: At chloroplastic ALT-2-01 T1 plants; test: as above; conditions: sprayed at 1-fold field concentration
Text: as §3, §1
as §1, with “situation” for “situations”

[12] = maize strain S23 (Zm chloroplastic ALT-3-02)
[13] = maize strain S24 (Zm chloroplastic ALT-3-02)
[14] = maize strain CK2 (wild-type), 72 g ai/ha (4-fold field concentration)
[15] = maize strain S21 (Zm cytoplasmic ALT-3-02)
[16] = maize strain S22 (Zm cytoplasmic ALT-3-02)
[17] = maize strain S13 (Zm cytoplasmic ALT-1-02)
[18] = maize strain S14 (Zm cytoplasmic ALT-1-02)

COC(=O)c1ccccc1S(=O)(=O)NC(=O)N(C)c1nc(C)nc(OC)n1 [tribenuron-methyl, methyl 2-[N-(4-methoxy-6-methyl-1,3,5-triazin-2-yl)-N-methylaminoformamidosulfonyl]benzoate]
herbicide tolerance conferred by thifensulfuron hydrolase (in words) [1]: conferred tribenuron-methyl herbicide tolerance | Average damage % 3DAT [2, 12]: 0% | Average damage % 7DAT [2, 12]: 0% | Average damage % 14DAT [2, 12]: 0% | Average damage % 21DAT [2, 12]: 0% | Average damage % 3DAT [2, 13]: 0% | Average damage % 7DAT [2, 13]: 0% | Average damage % 14DAT [2, 13]: 0% | Average damage % 21DAT [2, 13]: 0% | Average damage % 7DAT [3, 14]: 86% | Average damage % 14DAT [3, 14]: 100% | Average damage % 21DAT [3, 14]: 100% | herbicide tolerance (in words) ([3]; wild-type maize plants, 72 g ai/ha): not tolerant | Average damage % 3DAT [4, 15]: 3% | Average damage % 7DAT [4, 15]: 0% | Average damage % 14DAT [4, 15]: 0% | Average damage % 21DAT [4, 15]: 0% | Average damage % 3DAT [4, 16]: 5% | Average damage % 7DAT [4, 16]: 0% | Average damage % 14DAT [4, 16]: 0% | Average damage % 21DAT [4, 16]: 0% | Average damage % 3DAT [5, 17]: 4% | Average damage % 7DAT [5, 17]: 0% | Average damage % 14DAT [5, 17]: 0% | Average damage % 21DAT [5, 17]: 0% | Average damage % 3DAT [5, 18]: 5% | Average damage % 7DAT [5, 18]: 0% | Average damage % 14DAT [5, 18]: 0% | Average damage % 21DAT [5, 18]: 0% | Highly resistant (number of plants) [6]: 25 | Moderately resistant (number of plants) [6]: 1 | Non-resistant (number of plants) [6]: 3 | Poorly resistant (number of plants) [6]: 1 | Highly resistant (number of plants) [7]: 22 | Moderately resistant (number of plants) [7]: 1 | Non-resistant (number of plants) [7]: 3 | Poorly resistant (number of plants) [7]: 1 | Highly resistant (number of plants) [8]: 28 | Moderately resistant (number of plants) [8]: 0 | Non-resistant (number of plants) [8]: 2 | Poorly resistant (number of plants) [8]: 0 | Highly resistant (number of plants) [9]: 24 | Moderately resistant (number of plants) [9]: 2 | Non-resistant (number of plants) [9]: 1 | Poorly resistant (number of plants) [9]: 1 | Highly resistant (number of plants) [10]: 27 | Moderately resistant (number of plants) [10]: 0 | Non-resistant (number of plants) [10]: 2 | Poorly resistant (number of plants) [10]: 0 | Highly resistant (number of plants) [11]: 29 | Moderately resistant (number of plants) [11]: 0 | Non-resistant (number of plants) [11]: 1 | Poorly resistant (number of plants) [11]: 1
